Data as given in patent US20180353457A1, “ABIETANE DITERPENOID 7-ACETOXYROYLEANONES FOR USE IN CANCER TREATMENT” (University of South Carolina, priority 2017, published 2018).

Experiments:
[1] = test system: COLO 205 (colon cancer) cells; assay: NCI-60 five dose screen, COLO 205; details: Homo sapiens, COLO 205, read-out: LC50
[2] = test system: MDA-MB-435 (melanoma) cells; assay: NCI-60 five dose screen, MDA-MB-435; details: Homo sapiens, MDA-MB-435, read-out: LC50
[3] = test system: HCC-2996 (colon cancer) cells; assay: NCI-60 five dose screen, HCC-2996; details: read-out: LC50
[4] = test system: A498 (renal cancer) cells; assay: NCI-60 five dose screen, A498; details: Homo sapiens, A498, read-out: LC50
[5] = test system: MDA-MB-468 (breast cancer) cells; assay: NCI-60 five dose screen, MDA-MB-468; details: Homo sapiens, MDA-MB-468, read-out: LC50
[6] = test system: DU-145 (prostate cancer) cells; assay: NCI-60 five dose screen, DU-145; details: Homo sapiens, DU-145, read-out: LC50
[7] = test system: NCI-H522 (non-small cell lung cancer) cells; assay: NCI-60 five dose screen, NCI-H522; details: Homo sapiens, NCI-H522, read-out: LC50
[8] = test system: OVCAR-3 (ovarian cancer) cells; assay: NCI-60 five dose screen, OVCAR-3; details: Homo sapiens, OVCAR-3, read-out: LC50
[9] = test system: SK-MEL-5 (melanoma) cells; assay: NCI-60 five dose screen, SK-MEL-5; details: Homo sapiens, SK-MEL-5, read-out: LC50
[10] = test system: RXF 393 (renal cancer) cells; assay: NCI-60 five dose screen, RXF 393; details: Homo sapiens, RXF 393, read-out: LC50
[11] = test system: SF-295 (CNS cancer) cells; assay: NCI-60 five dose screen, SF-295; details: Homo sapiens, SF-295, read-out: LC50
[12] = test system: HOP-92 (non-small cell lung cancer) cells; assay: NCI-60 five dose screen, HOP-92; details: Homo sapiens, HOP-92, read-out: LC50

Q: What does the source list for `COc1cccc2c1C(=O)c1c(O)c3c(c(O)c1C2=O)C[C@@](O)(C(=O)CO)C[C@@H]3O[C@H]1C[C@H](N)[C@H](O)[C@H](C)O1` [Doxorubicin, doxorubicin, reference compound]?
A: CC50 [1]: 4.9 µM; CC50 [2]: 2.88 µM; CC50 [3]: 6.76 µM; CC50 [4]: 3.72 µM; CC50 [5]: 2.45 µM; CC50 [6]: 23.4 µM; CC50 [7]: 9.33 µM; CC50 [8]: 23.4 µM; CC50 [9]: 1.62 µM; CC50 [10]: 4.79 µM; CC50 [11]: 19.1 µM; CC50 [12]: 20.9 µM
